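Grown in 96-well plates, cells were treated for 48 hours with each compound at five concentrations. Insufficient inhibition: endpoint recorded as highest concentration tested. Definition used: TGI = concentration required for complete inhibition of growth.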
Key:
Assay in all cases: DTP human tumour cell line panel, 48 h
[1] = system: 786-0 renal
[2] = system: A549 NSCLC
[3] = system: BT-549 breast
[4] = system: CCRF-CEM leukemia
[5] = system: HCC-2998 colon
[6] = system: HCT-116 colon
[7] = system: HCT-15 colon
[8] = system: HOP-92 NSCLC
[9] = system: HS 578T breast
[10] = system: HT29 colon
[11] = system: MALME-3M melanoma
[12] = system: MCF7 breast
[13] = system: MDA-MB-231 breast
[14] = system: MOLT-4 leukemia
[15] = system: NCI-H522 lung
[16] = system: SF-268 CNS
[17] = system: SF-295 CNS
[18] = system: SK-MEL-2 melanoma
[19] = system: U251 CNS

| Compound | TGI [1] [µM] | TGI [2] [µM] | TGI [3] [µM] | TGI [4] [µM] | TGI [5] [µM] | TGI [6] [µM] | TGI [7] [µM] | TGI [8] [µM] | TGI [9] [µM] | TGI [10] [µM] | TGI [11] [µM] | TGI [12] [µM] | TGI [13] [µM] | TGI [14] [µM] | TGI [15] [µM] | TGI [16] [µM] | TGI [17] [µM] | TGI [18] [µM] | TGI [19] [µM] |
| --- | --- | --- | --- | --- | --- | --- | --- | --- | --- | --- | --- | --- | --- | --- | --- | --- | --- | --- | --- |
| Fc1ccccc1-c1cc(=S)c2cc3c(cc2[nH]1)OCO3 | > 100 | > 100 | > 100 | > 100 | > 45.5 | > 100 | > 100 | > 100 | > 100 | 40.2 | > 100 | > 100 | > 100 | > 25.1 | 57 | > 100 | > 100 | > 76.7 | > 100 |
| NS(=O)(=O)c1ccc(N=Nc2ccc(O)cc2)cc1 | > 100 | > 100 | 62.5 | > 100 | > 100 | > 100 | > 100 | > 100 | > 100 | > 100 | > 100 | > 100 | > 100 | > 100 | > 100 | > 100 | > 100 | > 100 | > 100 |
| C/C(=N\N)C(CN1CCOCC1)C(c1ccccc1)c1c(O)c2ccccc2oc1=O (centres undefined) | > 100 | > 100 | > 100 | > 100 | > 100 | > 100 | > 100 | > 100 | > 100 | > 100 | > 100 | > 100 | > 100 | > 80.8 | > 100 | > 100 | > 100 | > 100 | > 100 |
| Cc1c(C)c(S(=O)(=O)N(CCCN)OCCCN)c(C)c2c1OC(C)(C)CC2 | 29.4 | 29.6 | 31.4 | 27.6 | 21.2 | 30 | 29.3 | 19.9 | 29.6 | 28.4 | 27.8 | 29.1 | 17.6 | 14.9 | 28.4 | 26.9 | 30.4 | 32.1 | 24.1 |
| O=C1/C(=C/c2ccc([N+](=O)[O-])cc2)CCCc2ccccc21 | > 100 | > 100 | > 100 | > 100 | > 100 | > 100 | > 100 | > 100 | 75.9 | > 100 | > 100 | > 100 | > 100 | > 100 | > 100 | > 100 | > 100 | > 100 | > 100 |
| CCOC(=O)c1ccc(Nc2nc3ccccc3n3cccc23)cc1 | > 100 | > 100 | > 100 | 0.108 | > 100 | > 100 | > 100 | > 100 | > 100 | > 100 | > 100 | > 100 | > 100 | > 100 | > 100 | > 100 | > 100 | > 100 | 98 |

From PubChem BioAssay (NCI)
